Measurements reported in article PMC5073322, “Novel Natural Product-like Caged Xanthones Bearing a Carbamate Moiety Exhibit Antitumor Potency and Anti-Angiogenesis Activity In vivo” (Scientific Reports, 2016).
In brackets after ≈: the same amount, converted by molar mass. Where two headings read alike, the source gives them in different places.

Key:
[1] = Water solubility by HPLC; format: physicochemical; conditions: thermodynamic from solid, deionized water, stirred overnight, HPLC 290 nm, read-out: S, water solubility
Excerpt: The physicochemical characteristics of compounds directly determine their potential drug-like properties. Assessing a compound’s physicochemical properties before performing in vivo evaluations can guide further studies and minimize the time and cost associated with drug discovery. Therefore, parallel to the in vivo study, these solubilities of these compounds in water were experimentally measured using high-performance liquid chromatography (HPLC). Based on the results of full wave scanning, 290 nm was chosen as the maximum absorption wavelength for HPLC detection.
(§1) A HPLC system with an ultraviolet (UV) detector was used to detect the solubility of the compounds. The optimal wavelength was 290 nm. Ethanol/water (85:15) was an efficient eluent at a flow rate of 0.5 mL/min. The compounds were stirred in deionized water overnight to maximize the retention of the compounds in solution. Then, the solutions were filtered and the supernatant was used as a fluid sample for HPLC detection. The permeability (Pe) of some of the compounds was tested with the help of a standard PAMPA (pION), as previously reported. PAMPA was performed on a PAMPA Explorer instrument (pION, Inc., Woburn, MA) with the PAMPA Explorer command software (Version 3.7.4.1). The compounds were diluted to 10 mM with the system solution buffer (pH 7.4). Then, 150 μL of the diluted compound solution was transferred to a UV plate, and the UV spectrum was collected and used as a reference. Then, paint the membrane with 5 μL of gastrointestinal tract (GIT) lipid. The acceptor chamber was filled with 200 μL of acceptor solution buffer, and the donor chamber was filled with 200 μL of diluted compound solution. The PAMPA sandwich was assembled and left at 25 °C for 4 h. The UV spectra (240–500 nm) from the donor and the acceptor were collected. The permeability coefficient was calculated with the PAMPA Explorer Command software (Version 3.7.4.1) based on the area under the curve (AUC) of the reference plate, the donor plate, and the acceptor plate. The permeability coefficient of the compound was tested for four times, and the data are shown as the average values. Ketoprofen (4.5×10^−6 cm/s) and propranolol (112.8×10^−6 cm/s) were used as the standards in this assay.

[2] = test system: HepG2; assay: MTT antiproliferative assay, HepG2; conditions: Homo sapiens, HepG2, 72 h
Description: (§2) The inhibition of tumour cell growth was measured by a modified tetrazolium (MTT) salt assay, as previously described[39]. Cells were cultured in a 96-well plate and treated with culture medium alone or different concentrations of the compounds. The cells were incubated for 72 h, and then, the MTT assay reagent was added. After a 4 h incubation, the formazan product was quantitated at 570 nm. The IC50 values (the concentrations that gave rise to 50% inhibition of cell viability) were calculated using GraphPad Prism 6 using a variable slope (four parameters).

[3] = test system: HCT116; assay: MTT antiproliferative assay, HCT116; conditions: Homo sapiens, HCT-116, 72 h
Description: as §2

[4] = test system: MDA-MB-231; assay: MTT antiproliferative assay, MDA-MB-231; conditions: Homo sapiens, MDA-MB-231, 72 h
Description: as §2

[5] = test system: A549/taxol; assay: MTT antiproliferative assay, Taxol-resistant A549; format: cell-based; conditions: 72 h, Taxol-resistant A549
[6] = test system: A549/cisplatin; assay: MTT antiproliferative assay, cisplatin-resistant A549; format: cell-based; conditions: Homo sapiens
Description: as §2

[7] = test system: A549; assay: MTT antiproliferative assay, A549; conditions: Homo sapiens, A549, 72 h
Description: as §2

[8] = Parallel artificial membrane permeability assay (PAMPA); format: in vitro ADME; conditions: PAMPA, different pH values (Fig. 5)
Description: Permeability is another important property that reflects the ability of molecules to diffuse through cell membranes. The permeability coefficients were determined using a standard parallel artificial membrane permeability assay (PAMPA) on a PAMPA Explorer instrument (Pion, Inc., MA, USA)[34].
as §1, with “The compounds were diluted to 10 mM with the system solution buffer (pH 7.4).” left out

[9] = A549/Taxol, read-out: IC50 A549/taxol, MTT, 72 h
[10] = A549, 72 h, read-out: IC50 A549/cisplatin, MTT, 72 h
[11] = read-out: IC50 HepG2, MTT, 72 h
[12] = read-out: IC50 HCT116, MTT, 72 h
[13] = read-out: IC50 MDA-MB-231, MTT, 72 h
[14] = MTT, 72 h, read-out: IC50 A549/cisplatin

SMILES | solubility [1] | IC50 ([2]; read-out: IC50 HepG2) | IC50 ([3]; read-out: IC50 HCT116) | IC50 ([4]; read-out: IC50 MDA-MB-231) | IC50 ([5]; MTT, read-out: IC50 A549/taxol) | IC50 [6, 14] | IC50 ([7]; read-out: IC50 A549) | IC50 [5, 9] | IC50 [6, 10] | solubility ([1]; water) | IC50 ([7]; read-out: IC50 A549, MTT, 72 h) | IC50 [2, 11] | IC50 [3, 12] | IC50 [4, 13] | permeability relative to DDO-6101 and GA [8]
CC(C)=CCC12OC(C)(C)C3CC(C=C4C(=O)c5c(cccc5OS(C)(=O)=O)OC431)C2=O (stereo not drawn) [Compound 2] | 20 µM (≈ 9.17 µg/mL) | 1410 ± 60 nM | 2120 ± 140 nM | 2000 ± 70 nM | – | – | – | – | – | – | – | – | – | – | –
CCOC(=O)COc1cccc2c1C(=O)C1=CC3CC4C(C)(C)OC(CC=C(C)C)(C3=O)C14O2 (stereo not drawn) [Compound 4] | 10 µM (≈ 4.67 µg/mL) | 12700 ± 970 nM | 8130 ± 730 nM | 5420 ± 570 nM | – | – | – | – | – | – | – | – | – | – | –
CC(C)=CCC12OC(C)(C)C3CC(C=C4C(=O)c5c(OCC(=O)O)cccc5OC431)C2=O (stereo not drawn) [Compound 5] | 30 µM (≈ 13.2 µg/mL) | > 10000 nM | > 10000 nM | > 10000 nM | – | – | – | – | – | – | – | – | – | – | –
CC(C)=CCC12OC(C)(C)C3CC(C=C4C(=O)c5c(OC(=O)N(C)C)cccc5OC431)C2=O (stereo not drawn) [Compound 8a] | – | – | – | – | – | – | – | 650 ± 80 nM | 1100 ± 100 nM | 60 µM (≈ 27.1 µg/mL) | 3090 ± 140 nM | 1730 ± 430 nM | 2320 ± 210 nM | 170 ± 40 nM | –
CCN(CC)C(=O)Oc1cccc2c1C(=O)C1=CC3CC4C(C)(C)OC(CC=C(C)C)(C3=O)C14O2 (stereo not drawn) [Compound 8b] | 30 µM (≈ 14.4 µg/mL) | 1880 ± 140 nM | 2870 ± 70 nM | 470 ± 70 nM | 680 ± 80 nM | 1460 ± 90 nM | 2860 ± 20 nM | – | – | – | – | – | – | – | improved the permeability
CCN(C)C(=O)Oc1cccc2c1C(=O)C1=CC3CC4C(C)(C)OC(CC=C(C)C)(C3=O)C14O2 (stereo not drawn) [Compound 8c] | – | – | – | – | – | – | – | 660 ± 160 nM | 1480 ± 140 nM | 30 µM (≈ 14 µg/mL) | 3050 ± 580 nM | 2560 ± 190 nM | 2750 ± 140 nM | 250 ± 120 nM | –

The next lines start with results.

solubility [1] | IC50 ([2]; read-out: IC50 HepG2) | IC50 ([3]; read-out: IC50 HCT116) | IC50 ([4]; read-out: IC50 MDA-MB-231) | IC50 ([5]; MTT, read-out: IC50 A549/taxol) | IC50 [6, 14] | IC50 ([7]; read-out: IC50 A549) | SMILES | IC50 [5, 9] | IC50 [6, 10] | solubility ([1]; water) | IC50 ([7]; read-out: IC50 A549, MTT, 72 h) | IC50 [2, 11] | IC50 [3, 12] | IC50 [4, 13] | permeability relative to DDO-6101 and GA [8]
40 µM (≈ 19.7 µg/mL) | 2310 ± 180 nM | 710 ± 40 nM | 580 ± 40 nM | 530 ± 80 nM | 1480 ± 250 nM | 9810 ± 170 nM | CC(C)=CCC12OC(C)(C)C3CC(C=C4C(=O)c5c(OC(=O)N6CCOCC6)cccc5OC431)C2=O (stereo not drawn) [Compound 8d] | – | – | – | – | – | – | – | improved the permeability
40 µM (≈ 19.1 µg/mL) | 990 ± 10 nM | 1060 ± 90 nM | 4400 ± 1500 nM | 12400 ± 290 nM | 5680 ± 150 nM | 8630 ± 190 nM | CC(C)=CCC12OC(C)(C)C3CC(C=C4C(=O)c5c(OC(=O)N6CCCC6)cccc5OC431)C2=O (stereo not drawn) [Compound 8e] | – | – | – | – | – | – | – | –
50 µM (≈ 24.6 µg/mL) | 950 ± 90 nM | 1020 ± 70 nM | 870 ± 160 nM | 1450 ± 180 nM | 2980 ± 170 nM | 2930 ± 20 nM | CC(C)=CCC12OC(C)(C)C3CC(C=C4C(=O)c5c(OC(=O)N6CCCCC6)cccc5OC431)C2=O (stereo not drawn) [Compound 8f] | – | – | – | – | – | – | – | –
20 µM (≈ 9.51 µg/mL) | 1750 ± 280 nM | 3150 ± 220 nM | 6800 ± 700 nM | 1100 ± 160 nM | 6700 ± 180 nM | 8450 ± 200 nM | CC(C)=CCC12OC(C)(C)C3CC(C=C4C(=O)c5c(OC(=O)N6CC=CC6)cccc5OC431)C2=O (stereo not drawn) [Compound 8h] | – | – | – | – | – | – | – | –
